From paper PMC12304827 (British Journal of Clinical Pharmacology, 2025)
Like-named read-outs stand apart in the source and are kept apart here.

Columns and labels:
CYP1A2 = conditions: cited from earlier work
[1] = OC study 1: EE and LN PK with/without ritlecitinib 200 mg QD; assay type: in vivo, human; conditions: for AUC(0-inf): AUCinf
[2] = OC study 2: EE and LN PK with/without ritlecitinib 50 mg QD; assay type: in vivo, human
CYP2B6 = molecular target: T1, CYP2B6 (Homo sapiens, UniProt P20813); conditions: for Effect of ritlecitinib on efavirenz AUC0–72 and Cmax (in words): ritlecitinib 200 mg QD
T1 sequence (P20813 1-491): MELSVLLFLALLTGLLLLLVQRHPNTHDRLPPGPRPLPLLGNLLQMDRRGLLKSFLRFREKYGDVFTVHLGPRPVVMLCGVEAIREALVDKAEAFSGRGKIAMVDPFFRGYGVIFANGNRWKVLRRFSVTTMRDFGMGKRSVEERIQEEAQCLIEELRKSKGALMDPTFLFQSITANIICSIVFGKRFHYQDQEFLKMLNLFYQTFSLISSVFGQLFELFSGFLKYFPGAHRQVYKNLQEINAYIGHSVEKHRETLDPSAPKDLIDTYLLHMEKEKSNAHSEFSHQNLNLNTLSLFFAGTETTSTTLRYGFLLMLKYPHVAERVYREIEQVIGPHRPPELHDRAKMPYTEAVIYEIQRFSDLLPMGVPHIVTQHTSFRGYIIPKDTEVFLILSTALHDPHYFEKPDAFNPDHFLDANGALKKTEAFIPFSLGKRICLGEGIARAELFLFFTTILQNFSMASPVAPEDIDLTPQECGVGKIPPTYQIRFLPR

[3] = caffeine single dose with ritlecitinib 200 mg QD × 9 days, plasma
[4] = caffeine with ritlecitinib 200 mg QD × 9 days vs alone
[5] = caffeine with ritlecitinib 200 mg QD × 9 days vs alone, listed as caffeine
[6] = multiple ritlecitinib 200 mg QD doses
[7] = female, human, plasma, oral, 50 mg
[8] = female, human, plasma, oral, 1 Portia tablet
[9] = efavirenz with ritlecitinib 200 mg QD × 11 days vs without
[10] = efavirenz with ritlecitinib 200 mg QD × 11 days vs without, listed as efavirenz

Structure (SMILES): Cn1c(=O)c2c(ncn2C)n(C)c1=O [Caffeine, caffeine]
- AUCinf, adjusted geometric mean (reference) (CYP1A2; caffeine alone, plasma): 15 660 ng h/mL
- AUClast, adjusted geometric mean (reference) (CYP1A2; caffeine alone, plasma): 14 780 ng h/mL
- Cmax, adjusted geometric mean (reference) (CYP1A2; caffeine alone, plasma): 2162 ng/mL
- AUCinf, adjusted geometric mean (test) (CYP1A2; [3]): 41 530 ng h/mL
- AUClast, adjusted geometric mean (test) (CYP1A2; [3]): 38 580 ng h/mL
- Cmax, adjusted geometric mean (test) (CYP1A2; [3]): 2372 ng/mL
- AUClast, ratio (test/reference) of adjusted geometric means (90% CI) (CYP1A2; [4]): 261.0 (232.5−293.1) %
- Cmax, ratio (test/reference) of adjusted geometric means (90% CI) (CYP1A2; [4]): 109.7 (103.9−115.9) %
- AUCinf, ratio (test/reference) of adjusted geometric means (90% CI) (CYP1A2; [5]): 265.1%
- Cmax, ratio (test/reference) of adjusted geometric means (90% CI) (CYP1A2; [5]): 109.7%
- Fold increase of caffeine AUCinf by ritlecitinib (CYP1A2; ritlecitinib 200 mg QD): ≈ 2.7 fold
- Fold increase of caffeine Cmax by ritlecitinib (CYP1A2; ritlecitinib 200 mg QD): ~1.1 fold
- Increase of caffeine AUCinf in the presence of ritlecitinib (CYP1A2; ritlecitinib 200 mg QD): ≈ 165%
- Increase of caffeine Cmax in the presence of ritlecitinib (CYP1A2; ritlecitinib 200 mg QD): ≈ 10%

Structure (SMILES): C#C[C@]1(O)CC[C@H]2[C@@H]3CCc4cc(O)ccc4[C@H]3CC[C@@]21C [EE, ethinyl oestradiol]
- AUC(0-inf) ([1]; female, human, plasma, oral, adjusted geometric mean (reference), 1 Portia tablet (EE 30 μg and LN 150 μg) alone, healthy females): 0.8 ng·h/mL
- AUC(0-inf) ([1]; female, human, plasma, oral, adjusted geometric mean (test), 1 Portia tablet (EE 30 μg and LN 150 μg) on Day 10 of ritlecitinib 200 mg QD × 11 days, plasma, healthy females): 0.656 ng·h/mL
- Cmax ([1]; female, human, plasma, oral, Cmax, adjusted geometric mean (test), 1 Portia tablet (EE 30 μg and LN 150 μg) on Day 10 of ritlecitinib 200 mg QD × 11 days, plasma, healthy females): 0.0606 ng/mL
- Decrease of AUCinf following coadministration of ritlecitinib [1, 6]: ≈ 18%
- Decrease of Cmax following coadministration of ritlecitinib [1, 6]: ≈ 12%
- Effect of ritlecitinib 200 mg QD on PK of OC steroid (in words) ([1]; ritlecitinib 200 mg QD): decreased
- AUC(0-inf) [2, 7]: 0.733 ng·h/mL
- AUC(0-t) [2, 7]: 0.605 ng·h/mL
- Cmax ([2]; female, human, plasma, oral, 50 mg, Cmax, adjusted geometric mean (test), 1 Portia tablet on Day 10 of ritlecitinib 50 mg QD × 13 days, plasma, healthy females): 0.0638 ng/mL
- AUC(0-inf) [2, 8]: 0.747 ng·h/mL
- AUC(0-t) [2, 8]: 0.658 ng·h/mL
- Effect of ritlecitinib 50 mg QD on PK of OC steroid (in words) [2]: did not produce a clinically meaningful change
- Effect of ritlecitinib 50 mg QD on PK of OC steroid (in words) ([2]; listed as ethinyl oestradiol): no relevant change

Structure (SMILES): O=C1Nc2ccc(Cl)cc2[C@@](C#CC2CC2)(C(F)(F)F)O1 [Efavirenz, efavirenz]
- AUC0–72, ratio (test/reference) of adjusted geometric means (90% CI) (CYP2B6; [9]): 99.7 (95.2–104.4) %
- AUClast, ratio (test/reference) of adjusted geometric means (90% CI) (CYP2B6; [9]): 99.7 (95.3–104.4) %
- Cmax, ratio (test/reference) of adjusted geometric means (90% CI) (CYP2B6; [9]): 88.2 (77.1–101.0) %
- AUC0–72, ratio (test/reference) of adjusted geometric means (90% CI) (CYP2B6; [10]): 99.7%
- Cmax, ratio (test/reference) of adjusted geometric means (90% CI) (CYP2B6; [10]): 88.2%
- Effect of ritlecitinib on efavirenz AUC0–72 and Cmax (in words) (CYP2B6): similar
- Effect of ritlecitinib on efavirenz AUC0–72 and Cmax (in words) (CYP2B6; listed as efavirenz): did not produce clinically meaningful changes
